Common to all, as to assay type: functional
Experiment [1] in a line: Inhibitory activity against MurB from Staphylococcus aureus.
Experiment [2] deals with Escherichia coli. In words: Antimicrobial activity against Escherichia coli GC 4559.
The test system of experiment [3] is Staphylococcus aureus. In words: Antimicrobial activity against Staphylococcus aureus GC 2216 (ATCC).
A short description of experiment [4]: Inhibitory activity against MurA from Escherichia coli.
The subject of experiment [5] is Enterococcus faecalis. In words: Antimicrobial activity against Enterococcus faecalis GC 2242 (VRE).
The test system of experiment [6] is Staphylococcus aureus. Description: Antimicrobial activity against Staphylococcus aureus GC 4543 (MSSA).
The test system of experiment [7] is Streptococcus pneumoniae. Description: Antimicrobial activity against Streptococcus pneumoniae GC1894 (PRSP) in the presence of 4% bovine serum albumin.
The nature of experiment [8]: Antimicrobial activity against MSCNS (methicillin-susceptible coagulase-negative staphylococci) GC 646. The conditions noted are these: Staphylococcus.
In experiment [9] the test system is Streptococcus pneumoniae. Description: Antimicrobial activity against Streptococcus pneumoniae GC1894 (PRSP).
Experiment [10] relates to Staphylococcus aureus. Description: Antimicrobial activity against Staphylococcus aureus GC 1131 (MRSA).
Experiment [11] can be described thus: Inhibitory activity against MurB from Escherichia coli.
In experiment [12] the test system is Enterococcus faecalis. Description: Antimicrobial activity against Enterococcus faecalis GC 4555 (ATCC).
Experiment [13] concerns Escherichia coli. Description: Antimicrobial activity against Escherichia coli GC 4560.

Values after ≈ are worked out from the molar mass of the structure shown.

As a reminder, the IC50 is the concentration that inhibits the measured activity by half. Low values mean higher potency, high ones lower potency. As usually defined, the MIC is the lowest concentration that inhibits growth of the organism. Take `CC(C)(C)c1nc(NC(=O)NCc2ccc(Cl)c(Cl)c2)sc1C#N`: the values for the IC50 in experiment [1], in [4] and in [11] were 11 µg/mL (≈ 28.7 µM), 20.8 µg/mL (≈ 54.3 µM) and more than 25 µg/mL, respectively. Moreover, the MIC in the experiment with Escherichia coli [2] is more than 128 µg/mL; in the experiment on Staphylococcus aureus [3], 0.25 µg/mL (≈ 0.652 µM); with Enterococcus faecalis [5], 0.5 µg/mL (≈ 1.3 µM); against Staphylococcus aureus [6] it was 0.5 µg/mL (≈ 1.3 µM); with Streptococcus pneumoniae [7], 128 µg/mL; in [8] it was 1 µg/mL (≈ 2.61 µM). Besides, the MIC with Streptococcus pneumoniae [9] was less than 0.12 µg/mL; in the experiment with Staphylococcus aureus [10] it was 1 µg/mL (≈ 2.61 µM); in the experiment on Enterococcus faecalis [12], 1 µg/mL (≈ 2.61 µM); with Escherichia coli [13], 2 µg/mL (≈ 5.22 µM).

As to `CC(C)(C)c1nc(NC(=O)Nc2ccc(Cl)c(Cl)c2)sc1C#N`, the 50% inhibitory concentration (IC50) in experiment [1] was 2.8 µg/mL (≈ 7.58 µM); in [4], 3.3 µg/mL (≈ 8.94 µM); in [11], 6.2 µg/mL (≈ 16.8 µM). For the same compound, the minimum inhibitory concentration (MIC) is more than 128 µg/mL against Escherichia coli [2]; less than 0.12 µg/mL against Staphylococcus aureus [3]; less than 0.12 µg/mL against Enterococcus faecalis [5]; less than 0.12 µg/mL in the experiment on Staphylococcus aureus [6]; 128 µg/mL in the experiment on Streptococcus pneumoniae [7]; less than 0.12 µg/mL in experiment [8]. In addition, the minimal inhibitory concentration (MIC) is less than 0.12 µg/mL in the experiment with Streptococcus pneumoniae [9], less than 0.12 µg/mL in the experiment on Staphylococcus aureus [10], 0.25 µg/mL (≈ 0.677 µM) with Enterococcus faecalis [12] and 0.5 µg/mL (≈ 1.35 µM) against Escherichia coli [13].

As for `N#Cc1sc(NC(=O)Nc2ccc(Cl)c(Cl)c2)nc1N1CCOCC1`, the 50% inhibitory concentration (IC50) is 13 µg/mL (≈ 32.6 µM) in [1], more than 25 µg/mL in experiment [4] and more than 25 µg/mL in experiment [11]. The MIC with Escherichia coli [2] was more than 128 µg/mL; in the experiment with Staphylococcus aureus [3], more than 128 µg/mL; in the experiment with Enterococcus faecalis [5] it was 128 µg/mL (≈ 321 µM); against Staphylococcus aureus [6], more than 128 µg/mL; with Streptococcus pneumoniae [7] it was more than 128 µg/mL; in experiment [8], more than 128 µg/mL. The MIC in the experiment on Streptococcus pneumoniae [9], in the experiment with Staphylococcus aureus [10], against Enterococcus faecalis [12] and in the experiment with Escherichia coli [13] was more than 128 µg/mL each time.

For the compound `CC(C)(C)c1nc(NC(=O)Nc2ccc(F)c(F)c2)sc1C#N`, the MIC in the experiment with Escherichia coli [2] is more than 128 µg/mL; in the experiment with Staphylococcus aureus [3], less than 0.12 µg/mL; in the experiment on Enterococcus faecalis [5], 0.5 µg/mL (≈ 1.49 µM); in the experiment with Staphylococcus aureus [6] it was less than 0.12 µg/mL; with Streptococcus pneumoniae [7], 128 µg/mL; in experiment [8], 0.5 µg/mL (≈ 1.49 µM). Also, the MIC with Streptococcus pneumoniae [9] was less than 0.12 µg/mL; against Staphylococcus aureus [10], less than 0.12 µg/mL; with Enterococcus faecalis [12], 1 µg/mL (≈ 2.97 µM); against Escherichia coli [13] it was 1 µg/mL (≈ 2.97 µM). The half-inhibitory concentration (IC50) in experiment [4] and in experiment [11] was more than 25 µg/mL in each case.

On to `CC(C)(C)c1nc(NC(=O)Nc2cccnc2)sc1C#N`, for which the IC50 in experiment [1], in experiment [4] and in experiment [11] was 25 µg/mL (≈ 83 µM) throughout. In addition, the MIC (against Escherichia coli [2]; against Staphylococcus aureus [3]; against Enterococcus faecalis [5]; with Staphylococcus aureus [6]; in the experiment on Streptococcus pneumoniae [7]; in experiment [8]) was more than 128 µg/mL throughout. Besides, the minimum inhibitory concentration (MIC) against Streptococcus pneumoniae [9], against Staphylococcus aureus [10], with Enterococcus faecalis [12] and against Escherichia coli [13] was more than 128 µg/mL in each case.

Turning to `O=C(Nc1ccc(Cl)c(Cl)c1)Nc1ncc([N+](=O)[O-])s1`, the IC50 in experiment [1] turned out to be 3 µg/mL (≈ 9 µM); in [4], 4.6 µg/mL (≈ 13.8 µM); in [11] it was 3.8 µg/mL (≈ 11.4 µM). The minimum inhibitory concentration (MIC) was more than 128 µg/mL in the experiment with Escherichia coli [2]; 0.25 µg/mL (≈ 0.75 µM) in the experiment on Staphylococcus aureus [3]; 1 µg/mL (≈ 3 µM) with Enterococcus faecalis [5]; 0.5 µg/mL (≈ 1.5 µM) with Staphylococcus aureus [6]; 128 µg/mL in the experiment with Streptococcus pneumoniae [7]; 0.5 µg/mL (≈ 1.5 µM) in experiment [8]. Moreover, the minimum inhibitory concentration (MIC) was 0.25 µg/mL (≈ 0.75 µM) against Streptococcus pneumoniae [9], 1 µg/mL (≈ 3 µM) against Staphylococcus aureus [10], 1 µg/mL (≈ 3 µM) in the experiment on Enterococcus faecalis [12] and 2 µg/mL (≈ 6 µM) against Escherichia coli [13].

As to `Cc1ccc(NC(=O)Nc2nc(C(C)(C)C)c(C#N)s2)cc1C`, the figures for the IC50 in experiment [1], in experiment [4] and in experiment [11] were 6.3 µg/mL (≈ 19.2 µM), more than 25 µg/mL and 6.2 µg/mL (≈ 18.9 µM), respectively. The minimal inhibitory concentration (MIC) in the experiment on Escherichia coli [2] is more than 128 µg/mL; in the experiment on Staphylococcus aureus [3] it was 0.25 µg/mL (≈ 0.761 µM); against Enterococcus faecalis [5], 0.5 µg/mL (≈ 1.52 µM); in the experiment on Staphylococcus aureus [6], 0.25 µg/mL (≈ 0.761 µM); in the experiment with Streptococcus pneumoniae [7], 128 µg/mL; in experiment [8], 0.5 µg/mL (≈ 1.52 µM). For the same compound, the MIC with Streptococcus pneumoniae [9] was less than 0.12 µg/mL; against Staphylococcus aureus [10], 0.5 µg/mL (≈ 1.52 µM); in the experiment with Enterococcus faecalis [12], 0.5 µg/mL (≈ 1.52 µM); against Escherichia coli [13], 2 µg/mL (≈ 6.09 µM).

Consider `CC(C)(C)c1nc(NC(=O)OCc2ccc(Cl)c(Cl)c2)sc1C#N`, for which the MIC in the experiment with Escherichia coli [2] was more than 128 µg/mL; in the experiment on Staphylococcus aureus [3] it was 8 µg/mL (≈ 20.8 µM); against Enterococcus faecalis [5], 1 µg/mL (≈ 2.6 µM); against Staphylococcus aureus [6] it was 1 µg/mL (≈ 2.6 µM); in the experiment with Streptococcus pneumoniae [7] it was more than 128 µg/mL; in experiment [8], more than 128 µg/mL. The MIC was 0.25 µg/mL (≈ 0.651 µM) against Streptococcus pneumoniae [9], 2 µg/mL (≈ 5.2 µM) against Staphylococcus aureus [10], 2 µg/mL (≈ 5.2 µM) in the experiment on Enterococcus faecalis [12] and more than 128 µg/mL in the experiment on Escherichia coli [13]. Moreover, the half-maximal inhibitory concentration (IC50) in [4] worked out at 25 µg/mL (≈ 65.1 µM); in experiment [11], 18 µg/mL (≈ 46.8 µM).

On to `CCOc1nc(NC(=O)Nc2ccc(Cl)c(Cl)c2)sc1C#N`, for which the MIC was more than 128 µg/mL against Escherichia coli [2]; 0.5 µg/mL (≈ 1.4 µM) in the experiment with Staphylococcus aureus [3]; 0.5 µg/mL (≈ 1.4 µM) with Enterococcus faecalis [5]; 0.5 µg/mL (≈ 1.4 µM) in the experiment with Staphylococcus aureus [6]; 128 µg/mL in the experiment on Streptococcus pneumoniae [7]; 0.5 µg/mL (≈ 1.4 µM) in [8]. Further, the MIC against Streptococcus pneumoniae [9] is less than 0.12 µg/mL; with Staphylococcus aureus [10], 1 µg/mL (≈ 2.8 µM); against Enterococcus faecalis [12] it was more than 128 µg/mL; with Escherichia coli [13] it was 0.5 µg/mL (≈ 1.4 µM). Also, the half-maximal inhibitory concentration (IC50) in experiment [4] was more than 25 µg/mL; in [11] it was 23 µg/mL (≈ 64.4 µM).

(Values after ChEMBL document CHEMBL1137071, “Phenyl thiazolyl urea and carbamate derivatives as new inhibitors of bacterial cell-wall biosynthesis” (Bioorg Med Chem Lett, 2004).)
